Data from publication PMC3610419, “A Randomized, Double-Blind Placebo Controlled Trial of Balapiravir, a Polymerase Inhibitor, in Adult Dengue Patients” (The Journal of Infectious Diseases, 2012).
Like-named read-outs stand apart in the source and are kept apart here.

Assays:
[1] = tested on: DENV reference strains and clinical isolates; experiment: Inhibition of DENV replication in Huh-7 cells, summary over all strains; assay type: cell-based, dengue virus
Method: The mean and standard deviation shown represent 3 independent (different date) experiments for each virus tested. Huh-7 cells were plated in 96-well plate at 10,000 cells/well in DMEM containing 10 % FBS in 100 μl volume one day prior to set up of the assay. The following day the medium was aspirated off and diluted virus at a multiplicity of infection of 0.5 or media was added to the assay and control wells, respectively. The virus was allowed to attach to the cells for two hours at 37°C in a humidified 5% C02 atmosphere while the dilutions of the test molecule were prepared. Test molecules (or medium as a control) were added after aspiration of the virus-containing media 2 hours post-infection in 3-fold dilutions at a final DMSO concentration of 1%. After 48 hrs, cells were washed and cellular RNA were isolated. In this study, we used a quantitative real time PCR method to quantitate dengue viral RNA in Huh-7 in the presence of inhibitors. Viral RNA and endogenous 18S rRNA control (Applied Bio System) was quantified by a real time PCR assay using the following primers. […] Taqman was performed in duplicate. […] First ΔCt was calculated by subtracting 18S rRNA CT value from dengue RNA CT value. ΔCts from duplicate taqman assay were averaged. […] Relative quantification was calculated using the following formula. Relative quantification = 2^-averageΔΔCT. […]

[2] = tested on: DENV-3; experiment: Inhibition of DENV replication in Huh-7 cells, viral RNA by quantitative real time PCR; assay type: cell-based, dengue virus; details: 48 hrs, mean ± SD of 3 experiments
Method: (§1) ^a Each experiment was done in duplicate. The mean and standard deviation shown represent 3 independent (different date) experiments for each virus tested. Huh-7 cells were plated in 96-well plate at 10,000 cells/well in DMEM containing 10 % FBS in 100 μl volume one day prior to set up of the assay. The following day the medium was aspirated off and diluted virus at a multiplicity of infection of 0.5 or media was added to the assay and control wells, respectively. The virus was allowed to attach to the cells for two hours at 37°C in a humidified 5% C02 atmosphere while the dilutions of the test molecule were prepared. Test molecules (or medium as a control) were added after aspiration of the virus-containing media 2 hours post-infection in 3-fold dilutions at a final DMSO concentration of 1%. After 48 hrs, cells were washed and cellular RNA were isolated. In this study, we used a quantitative real time PCR method to quantitate dengue viral RNA in Huh-7 in the presence of inhibitors. Viral RNA and endogenous 18S rRNA control (Applied Bio System) was quantified by a real time PCR assay using the following primers. Dengue Reverse (Common to all the serotypes): 5’-[…]-3’, Dengue forward serotype 1: 5’-[…]-3’, Dengue forward serotype 2 or 3: 5’-[…]-3’, Dengue forward serotype 4: 5’-[…] -3’ and Dengue probe (Common to all the serotypes): 5'-/56-FAM/[…]/3BHQ_1/-3'. Taqman was performed in duplicate. IC50 was obtained using the following calculations. First ΔCt was calculated by subtracting 18S rRNA CT value from dengue RNA CT value. ΔCts from duplicate taqman assay were averaged. Then ΔΔCt was obtained by subtracting the average ΔCt of non-treated sample from the treated sample average ΔCt. Relative quantification was calculated using the following formula. Relative quantification = 2^-averageΔΔCT. The 50% inhibitory concentrations (EC50) were calculated using the sigmoidal dose-response model in Microsoft XLfit.

[3] = tested on: DENV-4; experiment: as above; assay type: cell-based, dengue virus; details: 48 hrs, mean ± SD of 3 experiments
Method: as §1

[4] = tested on: DENV-1; experiment: as above; assay type: cell-based, dengue virus; details: 48 hrs, mean ± SD of 3 experiments
Method: as §1

[5] = tested on: DENV-2; experiment: as above; assay type: cell-based, dengue virus; details: 48 hrs, mean ± SD of 3 experiments
Method: as §1

[6] = cited from earlier work
[7] = clinical; details: human, in vivo
Method: Randomization to treatment group was by computer-generated randomization sequencing in blocks of 2. Balapiravir was formulated in a 500-mg film-coated tablet. The placebo consisted of an identical looking tablet containing excipient only. All balapiravir and placebo tablets were provided by F. Hoffmann-La Roche. Patients in cohort 1 (n = 20) received 1500 mg of balapiravir or an identical placebo orally every 12 hours for 5 days (10 doses). The decision to dose escalate (to 3000 mg) was made after review of the partially unblinded group mean clinical and laboratory data acquired from patients in cohort 1. Patients in cohort 2 (n = 44) received 3000 mg of balapiravir or placebo orally twice a day for 5 days (10 doses).
Serum samples for pharmacokinetic investigations were collected at time 0 (predose) and 2, 4, 8, and 12 hours postdose on days 1 and 5. Pharmacokinetics parameters were calculated using noncompartmental methods.

[8] = tested on: DENV-1, DENV-2, and DENV-4; experiment: Activity against DENV in primary human macrophages; assay type: cell-based; details: Dengue virus, Macrophage, DENV-1, DENV-2, DENV-4, data not shown, read-out: mean EC50 range
[9] = tested on: DENV-1, DENV-2, and DENV-4; experiment: Activity against DENV in dendritic cells; assay type: cell-based; details: Dengue virus, Dendritic cell, DENV-1, DENV-2, DENV-4, data not shown, read-out: mean EC50 range

C#C[C@@]1(O)[C@H](O)[C@@H](CO)O[C@H]1n1ccc2c(N)ncnc21 [NITD008, reference compound]
IC50 ([1]; Huh-7 cells, range over DENV strains, read-out: Mean values of median inhibitory concentration (IC50)): 100 to 600 nM | IC50 ([2]; DENV-3 strain 33/0072 (clinical isolate), Huh-7 cells): 500 ± 200 nM | IC50 ([2]; DENV-3 strain 33/0096 (clinical isolate), Huh-7 cells): 300 ± 100 nM | IC50 ([2]; DENV-3 strain 33/0177 (clinical isolate), Huh-7 cells): 300 nM | IC50 ([2]; DENV-3 strain 33/0253 (clinical isolate), Huh-7 cells): 600 nM | IC50 ([2]; DENV-3 strain H87, Huh-7 cells): 400 ± 100 nM | IC50 ([3]; DENV-4 strain H241, Huh-7 cells): 600 ± 100 nM | IC50 ([3]; DENV-4 strain Phili/1567, Huh-7 cells): 100 ± 100 nM | IC50 ([3]; DENV-4 strain Senga/DA, Huh-7 cells): 300 ± 100 nM | IC50 ([3]; DENV-4 strain Venz/JQ, Huh-7 cells): 200 ± 100 nM | IC50 ([4]; DENV-1 strain FR28 (clinical isolate)): 500 ± 100 nM | IC50 ([4]; DENV-1 strain FR34 (clinical isolate)): 500 ± 200 nM | IC50 ([4]; DENV-1 strain FR37 (clinical isolate)): 400 ± 100 nM | IC50 ([4]; DENV-1 strain FR42 (clinical isolate)): 500 ± 200 nM | IC50 ([4]; DENV-1 strain Thsman): 400 ± 100 nM | IC50 ([5]; DENV-2 strain 32/0102 (clinical isolate), Huh-7 cells): 500 ± 200 nM | IC50 ([5]; DENV-2 strain 32/0140 (clinical isolate), Huh-7 cells): 300 nM | IC50 ([5]; DENV-2 strain 33/0051 (clinical isolate), Huh-7 cells): 400 ± 200 nM | IC50 ([5]; DENV-2 strain 33/0178 (clinical isolate), Huh-7 cells): 300 ± 200 nM | IC50 ([5]; DENV-2 strain Th36, Huh-7 cells): 500 ± 100 nM

[N-]=[N+]=N[C@]1(CO)O[C@@H](n2ccc(N)nc2=O)[C@H](O)[C@@H]1O [R1479, 4′-azidocytidine]
EC50 ([1]; Dengue virus, Huh-7, read-out: mean half maximal effective concentration (EC50) values): 1900 to 11000 nM | Cmax above the HCV replicon EC50 ([6]; 500 mg balapiravir twice daily): > 5 fold | mean plasma trough level above the human serum adjusted HCV replicon EC50 ([6]; 1500 mg balapiravir twice daily): 3.5 fold | ratio of mean plasma trough level to human serum adjusted HCV replicon EC50 ([6]; 3000 mg balapiravir twice daily): 4.9 | ratio of mean plasma trough level to human serum adjusted HCV replicon EC50 ([6]; 4500 mg balapiravir twice daily): 7.8 | Cmax [7]: 25 to 145 µM | mean Cmin concentrations that may need to be exceeded for antiviral effects on DENV [7]: 6.7 to 39 µM | Cmax ([7]; 1500 mg, Cmax): 16.5 µM | Cmax ([7]; 1500 mg, plasma Cmax of R1479): > 6 µM | Cmax ([7]; 3000 mg, Cmax): 23.9 µM | EC50 [8]: 1300 to 3200 nM | EC50 [9]: 5200 to 6000 nM
